From patent publication US8420824B2, “Substituted pyrazoles, compositions containing these, method of production and use” (Sanofi, priority 2006, dated 2013)
Counter-ions that a name gives are not always drawn.

Assays:
[1] = biological target: T1, human KDR enzyme (Homo sapiens, UniProt P35968); test: in vitro test of phosphorylation of substrate with the enzyme KDR (scintillation technique); format: biochemical; settings: Table 1; unit inferred; read-out: KDR (concentration that inhibits 50% of the kinase activity)
T1 construct: The cytoplasmic domain of the human KDR enzyme was cloned in the form of a GST fusion; GST; made in house; host or cells: SF21 insect cells (baculovirus, pFastBac)
T1 sequence (P35968 786-1356 limits assumed): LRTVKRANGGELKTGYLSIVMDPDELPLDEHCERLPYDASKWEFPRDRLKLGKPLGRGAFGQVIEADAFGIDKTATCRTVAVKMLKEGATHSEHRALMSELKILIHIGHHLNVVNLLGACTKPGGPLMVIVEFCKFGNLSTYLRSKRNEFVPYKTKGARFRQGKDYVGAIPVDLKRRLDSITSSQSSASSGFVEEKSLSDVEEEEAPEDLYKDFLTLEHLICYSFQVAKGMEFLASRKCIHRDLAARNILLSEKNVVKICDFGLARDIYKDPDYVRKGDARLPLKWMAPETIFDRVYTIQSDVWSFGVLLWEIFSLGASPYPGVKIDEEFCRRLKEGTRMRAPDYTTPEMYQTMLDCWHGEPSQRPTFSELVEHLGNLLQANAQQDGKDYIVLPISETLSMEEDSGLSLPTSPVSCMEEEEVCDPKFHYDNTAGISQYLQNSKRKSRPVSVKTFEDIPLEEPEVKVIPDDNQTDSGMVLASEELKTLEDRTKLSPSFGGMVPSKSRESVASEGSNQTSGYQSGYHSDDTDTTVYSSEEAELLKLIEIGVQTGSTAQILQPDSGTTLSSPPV
Procedure: Determination of the Activity of the Compounds—Experimental Protocols 1. KDR
The inhibitory effect of the compounds is determined in an in vitro test of phosphorylation of substrate with the enzyme KDR via a scintillation technique (96-well plate, NEN).
The cytoplasmic domain of the human KDR enzyme was cloned in the form of a GST fusion in the pFastBac baculovirus expression vector. The protein was expressed in the SF21 cells and purified to about 60% homogeneity.
The KDR kinase activity is measured in 20 mM MOPS, 10 mM MgCl2, 10 mM MnCl2, 1 mM DTT, 2.5 mM EGTA, 10 mM b-glycerophosphate, pH=7.2, in the presence of 10 mM MgCl2, 100 μm Na3VO4, 1 mM NaF. 10 μl of the compound are added to 70 μl of kinase buffer containing 100 ng of KDR enzyme at 4° C. The reaction is initiated by adding 20 μl of solution containing 2 μg of substrate (SH2-SH3 fragment of PLCγ expressed in the form of a GST fusion protein), 2 μCi of γ^33P[ATP] and 2 μm of cold ATP. After incubation for 1 hour at 37° C., the reaction is stopped by adding 1 volume (100 μl) of 200 mM EDTA. The incubation buffer is removed, and the wells are washed three times with 300 μl of PBS. The radioactivity in each well is measured using a Top Count NXT radioactivity counter (Packard).
The background noise is determined by measuring the radioactivity in four different wells containing radioactive ATP and the substrate alone.
A total activity control is measured in four different wells containing all the reagents (γ^33P—[ATP], KDR and substrate PLCγ), but in the absence of compound.
The inhibition of the KDR activity with the compound of the invention is expressed as a percentage of inhibition of the control activity determined in the absence of compound.
Compound SU5614 (Calbiochem) (1 μM) is included in each plate as an inhibition control.

[2] = biological target: T2, human Tie2 (Homo sapiens, UniProt Q02763); test: test of phosphorylation of PLC with Tie2 (GST-Tie2); format: biochemical; settings: Table 1; unit inferred; read-out: Tie2 (concentration that inhibits 50% of the kinase activity)
T2 construct: amino acids of the intracellular domain 776-1124; made in house; host or cells: baculovirus expression (pFastBacGT)
T2 sequence (Q02763 776-1124): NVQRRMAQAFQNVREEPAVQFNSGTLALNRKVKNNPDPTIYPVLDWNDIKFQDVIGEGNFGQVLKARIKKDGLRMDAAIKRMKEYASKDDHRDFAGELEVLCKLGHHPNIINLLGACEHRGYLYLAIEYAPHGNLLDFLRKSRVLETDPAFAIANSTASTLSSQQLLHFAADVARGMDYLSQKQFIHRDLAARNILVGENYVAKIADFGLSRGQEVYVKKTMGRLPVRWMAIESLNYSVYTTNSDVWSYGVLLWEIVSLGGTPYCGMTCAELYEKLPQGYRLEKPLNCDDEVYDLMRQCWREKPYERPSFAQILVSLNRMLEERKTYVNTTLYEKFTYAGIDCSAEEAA
Procedure: The coding sequence of human Tie2 corresponding to the amino acids of the intracellular domain 776-1124 was generated by PCR using the cDNA isolated from a human placenta as a model. This sequence was introduced into a pFastBacGT baculovirus expression vector in the form of a GST fusion protein.
The inhibitory effect of the molecules is determined in a test of phosphorylation of PLC with Tie2 in the presence of GST-Tie2 purified to about 80% homogeneity. The substrate is composed of the SH2-SH3 fragments of PLC expressed in the form of a GST fusion protein.
The kinase activity of Tie2 is measured in a MOPS 20 mM pH 7.2 buffer, containing 10 mM MgCl2, 10 mM MnCl2, 1 mM DTT, 10 mM of glycerophosphate. In a 96-well FlashPlate plate maintained on ice, a reaction mixture is deposited, composed of 70 μL of kinase buffer containing 100 ng of enzyme GST-Tie2 per well. Next, 10 μL of the test molecule diluted in DMSO to a maximum concentration of 10% are added. For a given concentration, each measurement is performed four times. The reaction is initiated by adding 20 μl of solution containing 2 μg of GST-PLC, 2 μm of cold ATP and 1 μCi of δ^33P[ATP]. After incubation for one hour at 37° C., the reaction is stopped by adding 1 volume (100 μl) of 200 mM EDTA. After removal of the incubation buffer, the wells are washed three times with 300 μL of PBS. The radioactivity is measured on a MicroBeta 1450 Wallac.
The inhibition of the Tie2 activity is calculated and expressed as a percentage of inhibition relative to the control activity determined in the absence of compound.

Structure (SMILES) | IC50 [1] | IC50 [2]
COC(=O)c1n[nH]cc1NCc1cccc(NC(=O)Nc2cc(C(F)(F)F)ccc2F)c1 [Example 32, Methyl 4-{[3-({[2-fluoro-5-(trifluoromethyl)phenyl]carbamoyl}amino)-benzyl]amino}-1H-pyrazole-3-carboxylate trifluoroacetate] | 64.1 nM | 1000 nM
COc1cc(NC(=O)Nc2cccc(CNc3c[nH]nc3C(N)=O)c2)cc(OC)c1 [Example 13, 4-[(3-{[(3,5-dimethoxyphenyl)carbamoyl]amino}benzyl)amino]-1H-pyrazole-3-carboxamide trifluoroacetate] | 11.8 nM | 1460 nM
COC(=O)c1cccc(NC(=O)Nc2cccc(CNc3c[nH]nc3C(N)=O)c2)c1 [Example 9, Methyl 3-{[(3-{[(3-carbamoyl-1H-pyrazol-4-yl)-amino]methyl}phenyl)-carbamoyl]amino}benzoate trifluoroacetate] | 21.8 nM | 4510 nM

Now those with a lower IC50 [1], led by results:

IC50 [1] | IC50 [2] | Structure (SMILES)
4.5 nM | 72.7 nM | NC(=O)c1n[nH]cc1NCc1cccc(NC(=O)Nc2cc(F)cc(C(F)(F)F)c2)c1 [Example 7, 4-{[3-({[3-fluoro-5-(trifluoromethyl)phenyl]carbamoyl}amino)benzyl]-amino}-1H-pyrazole-3-carboxamide trifluoroacetate]
8 nM | 20 nM | NC(=O)c1n[nH]cc1NCc1cccc(NC(=O)Nc2cc(C(F)(F)F)ccc2F)c1 [Example 2a, 4-{[3-({[2-fluoro-5-(trifluoromethyl)phenyl]carbamoyl}amino)benzyl]-amino}-1H-pyrazole-3-carboxamide trifluoroacetate]
